Read-outs that look alike come from different tables or passages of the source.
Experiments:
[1] = system: human monocytes / monocyte-derived macrophages (hMDM); assay: Human monocyte training assay: cytokine ELISA after restimulation of monocyte-derived macrophages; format: cell-based
Dectin-1b = molecular target: T1, Dectin-1b (Homo sapiens, UniProt Q9BXN2); assay: hDectin1b-HEK293 NFκB-SEAP reporter cell assay (QuantiBlue); format: cell-based; conditions: for blocking of BGP- or dWGP-driven NFκB-SEAP activation: pre-incubation 1 h before BGP or dWGP 100 μg/mL; for NFκB-linked SEAP activity (Dectin-1b activation): β-glucans 1, 10 & 100 μg/mL, 6 h, relative to untreated cells
T1 construct: host or cells: HEK293 (HEK-Blue) NFκB-SEAP reporter cells
T1 sequence (Q9BXN2 1-201 isoform Q9BXN2-2): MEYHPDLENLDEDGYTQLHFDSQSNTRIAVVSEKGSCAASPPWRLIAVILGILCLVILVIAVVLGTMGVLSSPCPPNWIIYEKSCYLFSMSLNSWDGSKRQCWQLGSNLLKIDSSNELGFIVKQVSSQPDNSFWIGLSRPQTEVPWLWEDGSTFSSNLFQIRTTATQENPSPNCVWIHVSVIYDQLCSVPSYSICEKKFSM
Method: SEAP activity in supernatants was measured 6 h post-stimulation and quantified relative to untreated cells (−).
hDectin1b-HEK293 NFκB-SEAP reporter cells were obtained from Invivogen and were cultured according to manufacturer's instructions. Puromycin and HEK-Blue™ CLR Selection (Invivogen) were used as selective antibiotics and cells were cultured using DMEM (4.5 g/L glucose), 10% (v/v) fetal bovine serum (FBS), 100 U/ml penicillin, 100 μg/ml streptomycin, 100 μg/ml Normocin and 2 mM L-glutamine.
hDectin1b-HEK293 NFκB-SEAP reporter cells (Invivogen) were cultured according to manufacturer's instructions. Reporter cell assays were carried out by seeding at 50,000 cells per well in 180 μL in a 96 well flat-bottomed plate and incubating the cells with 20 μL of the indicated agonists overnight. SEAP activity was measured using QUANTI-Blue (Invivogen) according to the manufacturer's instructions. Briefly, 20 μL of supernatant was added to 180 μL of QUANTI-Blue solution and incubated at 37° C. for 15 minutes. Optical density at 620 nm was then measured using a plate reader.

[2] = system: bone marrow hematopoietic stem & progenitor cells (HSPC); assay: In vivo induction of trained immunity: flow cytometry of mouse bone marrow HSPC populations; conditions: 0.050% w/w in chow, 4 weeks
[3] = system: mTOR (phospho-S6 ribosomal protein); assay: Intracellular phospho-S6 staining by flow cytometry (mTOR activity); format: cell-based, human; conditions: 15 min pre-treatment, dWGP 10 μg/mL 2 h
Method: To analyse phospho-S6 ribosomal protein activity after β-glucan treatment, PBMCs were isolated as above and resuspended in RPMI-1640 media supplemented with 10% human AB serum (Sigma-Aldrich) at 2×10^6/mL. Cells were first incubated with metabolic inhibitors for 15 min as indicated above. […] After the incubation time, cells were resuspended by vortexing quickly, washed in flow buffer; [PBS-1× (Gibco) supplemented with 5% heat inactivated FBS (Gibco) and 0.1% Sodium azide (Sigma)] and the following flow cytometry staining protocol was applied to all samples with up to 100,000 cells per sample. Cells were stained with fixable viability stain ZombieAqua™ (Biolegend) at the concentration of 1:500 for 15 minutes. Subsequently, samples were washed with flow buffer and incubated with anti-Dectin-1-PE (clone 15E2, Biolegend) antibody for Dectin-1 surface staining, then washed and fixed 20 minutes with IC Fixation Buffer (Invitrogen). […] All cells were subsequently washed with flow buffer and resuspended 20 minutes with IC Fixation Buffer (Invitrogen) for fixation. Cells were then washed with flow buffer, incubated at 4° C. for 30 minutes with Perm/Wash Buffer (BD Biosciences) containing anti-phospho-S6-PE (Ser235/236) (cloneD57.2.2E, Cell Signaling) at 1:200 for intracellular pS6 staining, and finally washed again with flow buffer. Compensation controls were obtained after staining UltraComp eBeads™ Compensation Beads (Invitrogen) with the appropriate antibodies. Cells were acquired on the BD flow cytometer Canto II with FACSDiva software. Data analysis and flow charts were performed using FlowJo software v.7.6 (TreeStar).

Dectin-1 = molecular target: T2, Dectin-1 (Homo sapiens, UniProt Q9BXN2); assay: Surface Dectin-1 expression on monocytes by flow cytometry; format: cell-based; conditions: CytD 10 μM 1 h before dWGP 100 μg/mL 15 min
T2 construct: incubated with anti-Dectin-1-PE (clone 15E2, Biolegend) antibody for Dectin-1 surface staining; endogenous in cells; host or cells: primary human monocytes (PBMC from buffy coats)
T2 sequence (Q9BXN2 1-247): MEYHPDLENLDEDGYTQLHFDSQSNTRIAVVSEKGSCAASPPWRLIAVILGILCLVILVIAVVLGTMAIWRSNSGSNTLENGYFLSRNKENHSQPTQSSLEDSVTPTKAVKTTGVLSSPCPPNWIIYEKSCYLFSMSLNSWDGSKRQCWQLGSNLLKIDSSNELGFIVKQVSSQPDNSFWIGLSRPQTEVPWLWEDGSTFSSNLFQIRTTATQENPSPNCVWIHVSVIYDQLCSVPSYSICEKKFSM
Method: To analyse phospho-S6 ribosomal protein activity after β-glucan treatment, PBMCs were isolated as above and resuspended in RPMI-1640 media supplemented with 10% human AB serum (Sigma-Aldrich) at 2×10^6/mL. Cells were first incubated with metabolic inhibitors for 15 min as indicated above. […] After the incubation time, cells were resuspended by vortexing quickly, washed in flow buffer; [PBS-1× (Gibco) supplemented with 5% heat inactivated FBS (Gibco) and 0.1% Sodium azide (Sigma)] and the following flow cytometry staining protocol was applied to all samples with up to 100,000 cells per sample. Cells were stained with fixable viability stain ZombieAqua™ (Biolegend) at the concentration of 1:500 for 15 minutes. Subsequently, samples were washed with flow buffer and incubated with anti-Dectin-1-PE (clone 15E2, Biolegend) antibody for Dectin-1 surface staining, then washed and fixed 20 minutes with IC Fixation Buffer (Invitrogen). Alternatively, cells were incubated with anti-CD14-APC (clone M5E2, Biolegend), anti-CD16-PE-Cy7 (clone 3G8, Biolegend), anti-HLA-DR-BB515 (clone G46-6, BD Bioscience) at a concentration of 1:100 in flow buffer for 30 minutes at 4° C. All cells were subsequently washed with flow buffer and resuspended 20 minutes with IC Fixation Buffer (Invitrogen) for fixation. […]

human monocytes = assay: TNF production by monocytes 24 h post-training (monocyte activation); format: cell-based; conditions: TNF 24 h after dWGP

For laminarin, which “effect of inhibitor pre-treatment on β-glucan training (TNF after LPS restimulation)” value [1] is on record?
The value was “more effective at all doses tested”.

What about the “blocking of BGP- or dWGP-driven NFκB-SEAP activation” value (Dectin-1b) of the same compound?
The value was “block Dectin-1b mediated NFκB activation”.

How did the “trained immunity-like effects (bone marrow progenitors, BMDM cytokines)” value [2] turn out when inulin was run?
Its value is “behaving similarly to control chow-fed mice”.

How did the “NFκB-linked SEAP activity (Dectin-1b activation)” value (Dectin-1b) turn out when Pustulan was run?
Its value is “drive NFκB signaling in a dose-dependent fashion”.

For Curdlan, which “TNF production upon LPS restimulation (training)” value ([1]; monocytes exposed 24 h, matured 5 days, LPS 10 ng/ml 6 h, vs untrained) is on record?
Its value is “A trend toward some training was observed”.

And the “NFκB-linked SEAP activity (Dectin-1b activation)” value (Dectin-1b)?
Its value is “drive NFκB signaling in a dose-dependent fashion”.

Which “effect of inhibitor pre-treatment on β-glucan training (TNF after LPS restimulation)” value [1] does the source give for `C=C1[C@@H](C)[C@H]2[C@H](Cc3ccccc3)NC(=O)[C@]23[C@H](OC(C)=O)/C=C/[C@@](C)(O)C(=O)[C@@H](C)C/C=C/[C@H]3[C@@H]1O` [cytD, cytochalasin-D] here?
Its value is “preferentially blocked the training effect”.

And the “effect of inhibitor pre-treatment on dWGP-driven p-S6 / mTOR activation” value [3]?
Its value is “blocked monocyte mTOR activation driven by dWGP”.

What about the “effect of inhibitor on dWGP-induced loss of surface Dectin-1” value (Dectin-1) of the same compound?
The value was “blunts this effect”.

With `O=CC[C@@H](O)[C@H](O)[C@H](O)CO` [2DG, 2-deoxyglucose] as the compound, how does the “effect of inhibitor pre-treatment on β-glucan training (TNF after LPS restimulation)” value [1] read?
Its value is “abolished the ability of dWGP to increase LPS-restimulation responses”.

What does the source list for `Cc1ccc(S(=O)(=O)/C=C/C#N)cc1` [BAY 11-7082]?
effect of inhibitor pre-treatment on β-glucan training (TNF after LPS restimulation) ([1]; inhibitor added to monocytes prior to training with dWGP and/or BGP, LPS 10 ng/ml 6 h): abolishment of LPS-restimulation driven TNF production in trained macrophages; effect of inhibitor pre-treatment on early monocyte TNF production driven by dWGP (human monocytes): enhanced early TNF production

How did the “effect of inhibitor pre-treatment on dWGP-driven p-S6 / mTOR activation” value [3] turn out when `CO/C1=C\C(C)=C\[C@@H](C)[C@@H](O)[C@@H](C)C/C(C)=C/C=C/[C@H](OC)[C@@H]([C@@H](C)[C@@H](O)[C@H](C)[C@@]2(O)C[C@@H](O)[C@H](C)[C@@H](C(C)C)O2)OC1=O` [bafilomycin A1] was run?
Its value is “profound decrease in monocyte mTOR activation by dWGP”.

For `Oc1cc(O)cc(/C=C/c2ccc(O)c(O)c2)c1` [PIC, picethanol], which “effect of inhibitor pre-treatment on β-glucan training (TNF after LPS restimulation)” value [1] is on record?
Its value is “suppressed monocyte training driven by both BGP and dWGP”.

And the “effect of inhibitor pre-treatment on dWGP-driven p-S6 / mTOR activation” value [3]?
The value was “did not affect mTOR up-regulation”.

And the “effect of inhibitor pre-treatment on early monocyte TNF production driven by dWGP” value (human monocytes)?
The value was “block traditional pro-inflammatory signaling and monocyte TNF production”.

What about the “blocking of BGP- or dWGP-driven NFκB-SEAP activation” value (Dectin-1b) of the same compound?
Its value is “blocking NFκB activation driven by dWGP and BGP”.
